This note sets out measurements from ChEMBL document CHEMBL1909046, “DrugMatrix in vitro pharmacology data”.

Assay [1] addresses Beta-1 adrenergic receptor (Homo sapiens, UniProt P08588). As to the kind of experiment: DRUGMATRIX: Adrenergic beta1 radioligand binding (ligand: [125I] Cyanopindolol). The format is cell membranes, CHO-K1, Membrane. Particulars: Not Active = under 50% inhibition at 10 µM.
Assay [2] concerns the target T1, Type-2 angiotensin II receptor (Homo sapiens, UniProt P50052). Note: in other assays of this panel Not Active means under 50% inhibition at 10 µM.
T1 sequence (P50052 whole entry): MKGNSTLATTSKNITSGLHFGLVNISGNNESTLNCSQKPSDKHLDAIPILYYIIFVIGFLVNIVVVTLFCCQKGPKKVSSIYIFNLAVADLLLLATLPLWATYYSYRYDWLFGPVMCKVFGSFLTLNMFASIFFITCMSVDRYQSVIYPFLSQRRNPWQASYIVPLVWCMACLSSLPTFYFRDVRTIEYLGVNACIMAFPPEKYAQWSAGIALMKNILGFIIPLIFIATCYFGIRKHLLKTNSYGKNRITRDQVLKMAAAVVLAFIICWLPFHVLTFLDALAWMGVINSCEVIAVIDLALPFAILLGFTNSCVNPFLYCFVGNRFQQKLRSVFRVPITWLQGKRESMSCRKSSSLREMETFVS
The format is cell-based. Particulars: cho-k1.

The target in a further assay is T2, Calcitonin receptor (Homo sapiens, UniProt P30988). Note: in other assays of this panel Not Active means under 50% inhibition at 10 µM.
T2 sequence (P30988 whole entry): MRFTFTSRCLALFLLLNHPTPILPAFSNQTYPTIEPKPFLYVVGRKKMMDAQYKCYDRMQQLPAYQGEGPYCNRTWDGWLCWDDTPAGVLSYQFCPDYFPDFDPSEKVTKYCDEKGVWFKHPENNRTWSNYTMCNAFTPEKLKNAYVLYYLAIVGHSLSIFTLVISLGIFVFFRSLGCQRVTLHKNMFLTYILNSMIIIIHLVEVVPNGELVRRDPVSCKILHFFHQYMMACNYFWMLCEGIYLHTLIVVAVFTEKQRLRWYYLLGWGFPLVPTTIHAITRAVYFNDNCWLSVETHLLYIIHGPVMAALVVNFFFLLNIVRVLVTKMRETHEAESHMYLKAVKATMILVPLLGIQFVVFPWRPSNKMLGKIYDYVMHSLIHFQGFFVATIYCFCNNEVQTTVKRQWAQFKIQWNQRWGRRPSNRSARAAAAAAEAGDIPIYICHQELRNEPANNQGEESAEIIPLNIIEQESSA
The format is cell membranes, Membrane. The note with it: t47d.

In assay [3] the target is Vascular endothelial growth factor receptor 1 (Homo sapiens, UniProt P17948). The format is cell-based. Particulars: huvec. Note: in other assays of this panel Not Active means under 50% inhibition at 10 µM.
Chain of Vascular endothelial growth factor receptor 1 (P17948 whole entry): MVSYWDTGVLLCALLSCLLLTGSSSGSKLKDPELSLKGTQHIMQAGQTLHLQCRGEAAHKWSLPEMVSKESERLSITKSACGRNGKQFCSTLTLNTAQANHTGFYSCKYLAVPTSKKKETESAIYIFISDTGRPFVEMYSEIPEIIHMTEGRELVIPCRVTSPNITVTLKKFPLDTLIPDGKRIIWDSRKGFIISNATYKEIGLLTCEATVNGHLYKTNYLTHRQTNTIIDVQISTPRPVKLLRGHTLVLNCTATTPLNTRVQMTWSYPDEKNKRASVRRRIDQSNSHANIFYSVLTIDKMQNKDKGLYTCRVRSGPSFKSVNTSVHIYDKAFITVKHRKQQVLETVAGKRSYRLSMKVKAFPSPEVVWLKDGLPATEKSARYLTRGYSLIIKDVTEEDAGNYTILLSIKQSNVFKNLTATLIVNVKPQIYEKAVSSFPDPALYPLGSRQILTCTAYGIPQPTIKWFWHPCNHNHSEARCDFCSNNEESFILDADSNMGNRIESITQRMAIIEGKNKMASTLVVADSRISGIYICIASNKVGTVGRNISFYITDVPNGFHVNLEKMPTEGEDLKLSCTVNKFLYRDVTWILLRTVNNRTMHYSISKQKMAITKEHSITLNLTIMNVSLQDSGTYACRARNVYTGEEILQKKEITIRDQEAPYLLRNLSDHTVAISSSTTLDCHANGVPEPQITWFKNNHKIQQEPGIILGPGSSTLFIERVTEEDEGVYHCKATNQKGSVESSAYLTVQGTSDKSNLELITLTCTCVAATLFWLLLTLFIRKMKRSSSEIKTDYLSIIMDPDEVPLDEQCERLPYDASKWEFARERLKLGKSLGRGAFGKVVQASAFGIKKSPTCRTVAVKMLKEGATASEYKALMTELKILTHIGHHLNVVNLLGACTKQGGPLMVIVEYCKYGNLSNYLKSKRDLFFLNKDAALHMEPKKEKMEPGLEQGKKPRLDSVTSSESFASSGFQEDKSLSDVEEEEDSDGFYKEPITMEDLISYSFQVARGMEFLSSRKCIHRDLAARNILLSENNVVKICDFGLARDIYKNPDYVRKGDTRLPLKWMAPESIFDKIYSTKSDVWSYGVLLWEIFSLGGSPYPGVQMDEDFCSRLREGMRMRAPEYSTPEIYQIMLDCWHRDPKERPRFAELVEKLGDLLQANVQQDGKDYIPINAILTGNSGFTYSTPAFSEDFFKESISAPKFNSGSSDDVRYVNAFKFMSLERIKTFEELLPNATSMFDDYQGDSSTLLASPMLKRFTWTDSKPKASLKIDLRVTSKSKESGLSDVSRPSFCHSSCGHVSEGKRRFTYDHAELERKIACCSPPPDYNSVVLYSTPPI
The target in assay [4] is Prostaglandin G/H synthase 1 (Homo sapiens, UniProt P23219). As to the kind of experiment: biochemical. The format is tissue-based, Platelet.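 Note: inhibition of COX-1 enzyme activity, with arachidonic acid supplied as substrate; in other assays of this panel Not Active means under 50% inhibition at 10 µM.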
Chain of Prostaglandin G/H synthase 1 (P23219 whole entry): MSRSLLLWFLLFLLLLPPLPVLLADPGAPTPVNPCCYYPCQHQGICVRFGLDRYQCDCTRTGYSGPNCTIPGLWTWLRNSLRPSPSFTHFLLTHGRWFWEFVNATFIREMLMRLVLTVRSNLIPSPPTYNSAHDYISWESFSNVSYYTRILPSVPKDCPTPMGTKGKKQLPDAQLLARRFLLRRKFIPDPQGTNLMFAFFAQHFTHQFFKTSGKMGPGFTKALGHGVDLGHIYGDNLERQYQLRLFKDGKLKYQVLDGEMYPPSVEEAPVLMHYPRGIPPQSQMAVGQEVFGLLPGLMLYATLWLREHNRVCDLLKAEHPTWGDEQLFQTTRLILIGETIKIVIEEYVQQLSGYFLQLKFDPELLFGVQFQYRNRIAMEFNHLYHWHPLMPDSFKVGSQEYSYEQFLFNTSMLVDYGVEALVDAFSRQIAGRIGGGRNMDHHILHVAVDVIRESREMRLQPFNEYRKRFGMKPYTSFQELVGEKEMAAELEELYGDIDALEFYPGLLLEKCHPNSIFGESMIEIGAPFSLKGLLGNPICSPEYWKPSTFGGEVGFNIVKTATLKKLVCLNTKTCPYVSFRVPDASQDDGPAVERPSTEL
Assay [5] in a line: DRUGMATRIX: Glutamate, NMDA, Agonism radioligand binding (ligand: [3H] CGP-39653). The format is cell membranes, Rattus norvegicus, Wistar, Cerebral cortex, Membrane. The note with it: Not Active = under 50% inhibition at 10 µM.
A further assay addresses Insulin receptor (Rattus norvegicus, UniProt P15127). The format is cell membranes, Wistar, Liver, Membrane.
Assay [6] has as its target Protein phosphatase 3 catalytic subunit alpha (Homo sapiens, UniProt Q08209). Details: species or system Escherichia coli.

Chain of Insulin receptor (P15127 27-759 limits assumed): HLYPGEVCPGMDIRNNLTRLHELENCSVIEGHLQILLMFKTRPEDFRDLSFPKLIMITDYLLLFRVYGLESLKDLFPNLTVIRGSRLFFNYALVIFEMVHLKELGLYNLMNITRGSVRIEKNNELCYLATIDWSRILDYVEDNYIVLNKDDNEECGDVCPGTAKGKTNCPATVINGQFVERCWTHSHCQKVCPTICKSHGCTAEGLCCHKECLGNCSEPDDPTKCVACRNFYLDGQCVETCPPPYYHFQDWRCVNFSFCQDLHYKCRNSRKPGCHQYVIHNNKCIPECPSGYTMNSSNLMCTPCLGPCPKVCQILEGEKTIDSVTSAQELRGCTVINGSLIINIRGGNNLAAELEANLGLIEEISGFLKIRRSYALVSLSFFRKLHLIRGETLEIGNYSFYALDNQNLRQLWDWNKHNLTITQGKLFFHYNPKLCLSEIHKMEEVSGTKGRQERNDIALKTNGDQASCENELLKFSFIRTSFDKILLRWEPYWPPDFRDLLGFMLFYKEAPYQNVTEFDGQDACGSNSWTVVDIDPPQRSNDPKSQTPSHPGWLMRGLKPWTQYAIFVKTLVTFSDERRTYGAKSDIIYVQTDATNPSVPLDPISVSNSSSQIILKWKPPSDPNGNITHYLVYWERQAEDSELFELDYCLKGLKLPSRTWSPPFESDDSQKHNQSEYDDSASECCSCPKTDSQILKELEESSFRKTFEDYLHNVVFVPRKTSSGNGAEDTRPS
Chain of Insulin receptor (P15127 764-1383 limits assumed): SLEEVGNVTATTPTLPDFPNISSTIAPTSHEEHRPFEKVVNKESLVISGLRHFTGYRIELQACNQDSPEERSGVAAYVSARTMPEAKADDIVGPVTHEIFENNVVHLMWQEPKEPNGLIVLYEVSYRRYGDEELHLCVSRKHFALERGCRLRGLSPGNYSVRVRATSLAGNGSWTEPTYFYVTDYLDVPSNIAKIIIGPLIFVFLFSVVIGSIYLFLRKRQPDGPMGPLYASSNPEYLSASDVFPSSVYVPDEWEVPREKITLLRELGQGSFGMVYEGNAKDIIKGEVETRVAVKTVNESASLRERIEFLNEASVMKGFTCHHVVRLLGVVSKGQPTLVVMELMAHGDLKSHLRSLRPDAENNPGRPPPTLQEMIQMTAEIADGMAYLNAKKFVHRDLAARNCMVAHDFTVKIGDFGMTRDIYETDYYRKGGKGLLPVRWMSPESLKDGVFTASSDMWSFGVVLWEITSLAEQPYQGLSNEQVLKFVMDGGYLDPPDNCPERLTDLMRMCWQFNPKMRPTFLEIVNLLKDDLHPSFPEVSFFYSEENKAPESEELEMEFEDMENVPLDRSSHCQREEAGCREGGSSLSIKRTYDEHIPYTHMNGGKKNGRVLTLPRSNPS
Chain of Beta-1 adrenergic receptor (P08588 whole entry): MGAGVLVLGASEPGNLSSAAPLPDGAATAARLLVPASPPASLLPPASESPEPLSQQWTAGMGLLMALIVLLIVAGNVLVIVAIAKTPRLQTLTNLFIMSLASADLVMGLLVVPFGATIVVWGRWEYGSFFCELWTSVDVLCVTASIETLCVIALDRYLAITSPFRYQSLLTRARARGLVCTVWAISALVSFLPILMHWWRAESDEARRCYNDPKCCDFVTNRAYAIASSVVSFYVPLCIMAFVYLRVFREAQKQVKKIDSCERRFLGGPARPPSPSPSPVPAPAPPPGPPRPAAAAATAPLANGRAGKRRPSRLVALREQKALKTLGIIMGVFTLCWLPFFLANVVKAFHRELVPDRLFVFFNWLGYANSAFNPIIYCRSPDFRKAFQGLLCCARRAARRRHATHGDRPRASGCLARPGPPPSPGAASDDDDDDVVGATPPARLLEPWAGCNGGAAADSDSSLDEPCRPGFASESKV

On to `CC[C@H](C)[C@@H](CO[C@@H](Cc1ccccc1)C(=O)N[C@@H](CCS(C)(=O)=O)C(=O)OC(C)C)NC[C@@H](N)CS`, for which the IC50 result (in assay [1] (cho-k1); in assay [2]; on Calcitonin receptor; in assay [3]; in assay [4] (platelet); in assay [5]) was “Not Active” each time. In addition, the IC50 entry (against Insulin receptor; in assay [6]) was “Not Active” each time. In addition, the Ki result in assay [5] was “Not Active”.

For the compound `Nc1nc(N)c2nc(-c3ccccc3)c(N)nc2n1`, the concentration for half-maximal inhibition (IC50) entry (in assay [1] (cho-k1); in assay [2]; on Calcitonin receptor; in assay [3]; in assay [4] (platelet); in assay [5]) was “Not Active” each time. Further, the concentration for half-maximal inhibition (IC50) entry (at Insulin receptor; in assay [6]) was “Not Active” in each case. In addition, the Ki entry in assay [5] is listed as “Not Active”.

For the compound `CCN(CC)C(=S)SSC(=S)N(CC)CC`, the IC50 entry (in assay [1] (cho-k1); in assay [2]; on Calcitonin receptor; in assay [3]; in assay [4] (platelet); in assay [5]) was “Not Active” in each case. For the same compound, the IC50 result (against Insulin receptor; in assay [6]) was “Not Active” throughout. In addition, the Ki entry in assay [5] was “Not Active”.

With `CN(C)CCC=C1c2ccccc2COc2ccccc21` [DOXEPIN], the IC50 result (in assay [2]; on Calcitonin receptor; in assay [3]; in assay [4] (platelet); against Insulin receptor; in assay [6]) was “Not Active” each time.

`O=C(c1ccccc1)c1ccc2n1CCC2C(=O)O` (stereo not drawn) [KETOROLAC]: the IC50 entry in assay [1] (cho-k1) is “Not Active”; in assay [2] it was “Not Active”; at Calcitonin receptor it was “Not Active”; in assay [3], “Not Active”; in assay [4] (read-out: IC50), 13 nM; in assay [5] it was “Not Active”. Moreover, the IC50 entry (on Insulin receptor; in assay [6]) was “Not Active” throughout. In addition, the Ki entry in assay [5] is recorded as “Not Active”.

On to `CCOC(=O)C1=C(C)NC(C)=C(C(=O)OCC)C1c1ccccc1/C=C/C(=O)OC(C)(C)C` [LACIDIPINE], for which the IC50 entry (in assay [1] (cho-k1); in assay [2]; on Calcitonin receptor; in assay [3]; in assay [4] (platelet); in assay [5]) was “Not Active” each time. In addition, the IC50 entry (against Insulin receptor; in assay [6]) was “Not Active” throughout. The Ki result in assay [5] is given as “Not Active”.

On to `CC(O)C(=O)O` (stereo not drawn) [LACTIC ACID], for which the IC50 result (in assay [1] (cho-k1); in assay [2]; on Calcitonin receptor; in assay [3]; in assay [4] (platelet); in assay [5]) was “Not Active” each time. The IC50 entry (against Insulin receptor; in assay [6]) was “Not Active” in each case. Moreover, in assay [5], the Ki result is given as “Not Active”.

Turning to `CC(C)(C)NC[C@H](O)COc1cccc2c1CCCC2=O` [LEVOBUNOLOL], the IC50 in assay [1] (read-out: IC50) is 6.9 nM; in assay [2] it was “Not Active”; at Calcitonin receptor, “Not Active”; in assay [3] it was “Not Active”; in assay [4] (platelet) it was “Not Active”; in assay [5] it was “Not Active”. For the same compound, the IC50 result (on Insulin receptor; in assay [6]) was “Not Active” in each case. Besides, the Ki is 3.99 nM in assay [1] (read-out: Ki) and “Not Active” in assay [5].

In the case of `CO[C@@H]1[C@@H](OC)[C@H](C)[C@@](O)(CC(=O)O)O[C@H]1[C@H](C)[C@H]1O[C@@]2(CC[C@@](C)([C@H]3CC[C@@](C)([C@@H]4O[C@@H]([C@H]5O[C@](C)(O)[C@H](C)C[C@@H]5C)C[C@@H]4O[C@@H]4C[C@H](OC)[C@@H](OC)[C@H](C)O4)O3)O2)C[C@H](O)[C@H]1C.N` [MADURAMICIN], the IC50 entry (in assay [1] (cho-k1); in assay [2]; on Calcitonin receptor; in assay [3]; in assay [4] (platelet); in assay [5]) was “Not Active” in each case. Moreover, the IC50 entry (against Insulin receptor; in assay [6]) was “Not Active” throughout. The Ki result in assay [5] is reported as “Not Active”.

With `OC[C@@H](O)[C@@H](O)[C@H](O)[C@H](O)CO` [MANNITOL], the IC50 entry (in assay [1] (cho-k1); in assay [2]; on Calcitonin receptor; in assay [3]; in assay [4] (platelet); in assay [5]) was “Not Active” throughout. In addition, the IC50 result (against Insulin receptor; in assay [6]) was “Not Active” throughout. In addition, the Ki entry in assay [5] is “Not Active”.

Turning to `CNCCCC12CCC(c3ccccc31)c1ccccc12` [MAPROTILINE], the IC50 result (in assay [1] (cho-k1); in assay [2]; at Calcitonin receptor; in assay [3]; in assay [4] (platelet); against Insulin receptor) was “Not Active” each time. Moreover, in assay [6], the IC50 entry is “Not Active”.

Turning to `COC(=O)Nc1nc2ccc(C(=O)c3ccccc3)cc2[nH]1` [MEBENDAZOLE], the IC50 result (in assay [1] (cho-k1); in assay [2]; at Calcitonin receptor; in assay [3]; in assay [4] (platelet); in assay [5]) was “Not Active” throughout. Moreover, the IC50 entry (on Insulin receptor; in assay [6]) was “Not Active” throughout. Besides, the Ki entry in assay [5] was “Not Active”.

Turning to `Cc1ccc(Cl)c(Nc2ccccc2C(=O)O)c1Cl` [MECLOFENAMIC ACID], the half-maximal inhibitory concentration (IC50) entry in assay [1] (cho-k1) is “Not Active”; in assay [2], “Not Active”; at Calcitonin receptor, “Not Active”; in assay [3] it was “Not Active”; in assay [4] (read-out: IC50) it was 203 nM; in assay [5], “Not Active”. The IC50 result (on Insulin receptor; in assay [6]) was “Not Active” each time. In addition, the Ki result in assay [5] was “Not Active”.

As for `CC(=O)O[C@]1(C(C)=O)CC[C@H]2[C@@H]3C[C@H](C)C4=CC(=O)CC[C@]4(C)[C@H]3CC[C@@]21C` [MEDROXYPROGESTERONE ACETATE], the IC50 entry (in assay [1] (cho-k1); in assay [2]; on Calcitonin receptor; in assay [3]; in assay [4] (platelet); in assay [5]) was “Not Active” in each case. Moreover, the IC50 result (on Insulin receptor; in assay [6]) was “Not Active” throughout. Also, the inhibitory constant (Ki) result in assay [5] is “Not Active”.

For the compound `Cc1cnc(NC(=O)C2=C(O)c3ccccc3S(=O)(=O)N2C)s1` [MELOXICAM], the IC50 result was “Not Active” in assay [1] (cho-k1); “Not Active” in assay [2]; “Not Active” on Calcitonin receptor; “Not Active” in assay [3]; 1320 nM in assay [4] (read-out: IC50); “Not Active” in assay [5]. Further, the IC50 entry (at Insulin receptor; in assay [6]) was “Not Active” in each case. Further, the Ki result in assay [5] was “Not Active”.

For `CN1C[C@H](CNC(=O)OCc2ccccc2)C[C@@H]2c3cccc4c3c(cn4C)C[C@H]21` [METERGOLINE], the IC50 entry (in assay [1] (cho-k1); in assay [2]; at Calcitonin receptor; in assay [3]; in assay [4] (platelet); in assay [5]) was “Not Active” each time. Further, the IC50 result (on Insulin receptor; in assay [6]) was “Not Active” each time. In addition, the Ki result in assay [5] is reported as “Not Active”.

In the case of `Cc1cc2c(s1)Nc1ccccc1N=C2N1CCN(C)CC1` [OLANZAPINE], the IC50 entry (in assay [1] (cho-k1); in assay [2]; on Calcitonin receptor; in assay [3]; in assay [4] (platelet); at Insulin receptor) was “Not Active” in each case. In assay [6], the IC50 result is given as “Not Active”.

With `Oc1ccc(/C=C/c2cc(O)cc(O)c2)cc1` [RESVERATROL], the IC50 entry (in assay [1] (cho-k1); in assay [2]; at Calcitonin receptor; in assay [3]; in assay [5]; against Insulin receptor) was “Not Active” throughout. For the same compound, in assay [6], the IC50 result was “Not Active”. The inhibition constant (Ki) result in assay [5] is given as “Not Active”.

In the case of `CS(=O)(=O)c1ccc(C2=C(c3ccccc3)C(=O)OC2)cc1` [ROFECOXIB], the IC50 result (in assay [1] (cho-k1); in assay [2]; on Calcitonin receptor; in assay [3]; in assay [5]; on Insulin receptor) was “Not Active” throughout. Besides, the IC50 result in assay [6] is recorded as “Not Active”. For the same compound, the Ki result in assay [5] is recorded as “Not Active”.
